5 compounds from PMC7407158, “Reprogramming of the Antibacterial Drug Vancomycin Results in Potent Antiviral Agents Devoid of Antibacterial Activity” (Pharmaceuticals, 2020) can be followed below.

Data set [1] deals with herpes simplex virus type 1 (HSV-1 strain KOS). Kind of data set: CPE reduction, MTS assay, HSV-1 in HEL cells. The data set is classed as cell-based. As to conditions: Human alphaherpesvirus 1, protection against virus-induced CPE, read-out: Antiviral EC50 HSV-1. (In general: Tetrazolium assays rely on reduction of a dye to a coloured formazan, in cell work by metabolically active cells.)

The subject of data set [2] is herpes simplex virus type 2 (HSV-2, strain G). The data set is described as follows: CPE reduction, MTS assay, HSV-2 in HEL cells. As to conditions: Human alphaherpesvirus 2, protection against virus-induced CPE, read-out: Antiviral EC50 HSV-2. The data set is classed as cell-based.
The test system of data set [3] is thymidine kinase deficient HSV-1/TK- mutant. The data set is described as follows: microbe, parasite or virus in culture. Type of data set: cell-based, herpes simplex virus type 1. The note with it: Human alphaherpesvirus 1, HEL, read-out: Antiviral EC50 HSV-1/TK-.
For data set [4], the system named is vaccinia virus (strain Lederle). The data set is described as follows: microbe, parasite or virus in culture. Type of data set: cell-based. The note with it: Orthopoxvirus vaccinia, HEL, read-out: Antiviral EC50 Vaccinia Virus.
A short description of data set [5]: in vitro. The note with it: human.
Data set [6] can be described thus: in vitro. The note with it: human. This is another data set of the same source.
Data set [7] is described as follows: in vitro. As to conditions: African green monkey.
The test system of data set [8] is B. subtilis ATCC 6633. Kind of data set: Broth microdilution MIC, B. subtilis ATCC 6633. The data set is classed as cell-based. The note with it: Bacillus subtilis. The procedure:
(§1) Antibacterial tests were carried out by the broth microdilution method on a panel of eight Gram-positive bacterial strains, using vancomycin and teicoplanin as reference compounds.
A general note: Broth dilution looks for growth in wells or tubes with falling amounts of substance.

Data set [9] has as its system S. aureus MSSA ATCC 29213. Kind of data set: Broth microdilution MIC, S. aureus MSSA ATCC 29213. The note with it: Staphylococcus aureus, read-out: In Vitro MIC. Type of data set: cell-based. The procedure: as §1
Data set [10] relates to S. aureus MRSA ATCC 33591. Kind of data set: Broth microdilution MIC, S. aureus MRSA ATCC 33591. The note with it: Staphylococcus aureus, read-out: In Vitro MIC. The data set is classed as cell-based. The procedure: as §1
Data set [11] deals with S. epidermidis ATCC 35984. The data set is described as follows: Broth microdilution MIC, S. epidermidis ATCC 35984. Type of data set: cell-based. As to conditions: Staphylococcus epidermidis. The procedure: as §1
Data set [12] concerns S. epidermidis mecA. The data set is described as follows: Broth microdilution MIC, S. epidermidis mecA. The data set is classed as cell-based. As to conditions: Staphylococcus epidermidis, read-out: In Vitro MIC. As for the experimental part: as §1
Data set [13] has as its system E. faecalis ATCC 29212. Kind of data set: Broth microdilution MIC, E. faecalis ATCC 29212. Type of data set: cell-based. As to conditions: Enterococcus faecalis. As for the experimental part:
as §1

Data set [14] deals with E. faecalis 15,376 VanA. Kind of data set: Broth microdilution MIC, E. faecalis 15,376 VanA. The note with it: Enterococcus faecalis, read-out: In Vitro MIC. The data set is classed as cell-based. As for the experimental part:
as §1

Data set [15] concerns E. faecalis ATCC 51,299 VanB. The data set is described as follows: Broth microdilution MIC, E. faecalis ATCC 51,299 VanB. Type of data set: cell-based. The note with it: Enterococcus faecalis, ATCC51, read-out: In Vitro MIC. As for the experimental part:
as §1

For data set [16], the system named is A/PR/8/34 virus. Type of data set: cell-based, Influenza A virus.
For data set [17], the system named is influenza A or B viruses. The data set is described as follows: Anti-influenza virus activity in MDCK cells, MTS assay, overall for the three influenza A or B viruses. Type of data set: cell-based, Influenza A and B viruses.
Data set [18] has as its system MDCK cells. As to conditions: read-out: CC50 (50% cytotoxic concentration), mock-infected, MTS cell viability assay, three days.
Data set [19] concerns HEL, human embryonic lung fibroblast cells. As to conditions: read-out: CC50 HEL; mock-infected HEL cells, MTS assay.
Data set [20] has as its system HeLa, human cervix carcinoma cells. As to conditions: read-out: CC50 HeLa; mock-infected HeLa cells, MTS assay.
In data set [21] the test system is Vero, African Green monkey kidney cells. As to conditions: read-out: CC50 Vero; mock-infected Vero cells, MTS assay.
The test system of data set [22] is Influenza A/H1N1 (A/Ned/378/05). Kind of data set: Influenza CPE reduction in MDCK cells, MTS assay, A/H1N1. The note with it: Influenza A virus, H1N1; MDCK cells; A/Ned/378/05; inhibition of virus-induced CPE by MTS assay; read-out: Antiviral EC50 Influenza A/H1N1. Type of data set: cell-based.
Data set [23] has as its system Influenza A/H3N2 (A/Victoria/361/11). The data set is described as follows: Influenza CPE reduction in MDCK cells, MTS assay, A/H3N2. Type of data set: cell-based. As to conditions: Influenza A virus, H3N2; MDCK cells; A/Victoria/361/11; inhibition of virus-induced CPE by MTS assay; read-out: Antiviral EC50 Influenza A/H3N2.
Data set [24] deals with Influenza B (B/Ned/537/05). The data set is described as follows: Influenza CPE reduction in MDCK cells, MTS assay, influenza B. Type of data set: cell-based. The note with it: Influenza B virus, inhibition of virus-induced CPE by MTS assay, read-out: Antiviral EC50 Influenza B.
Data set [25] can be described thus: in vitro. As to conditions: dog.
The mark [26] stands for this setting: ATCC6633, read-out: In Vitro MIC.
Where [27] appears, read: ATCC35984, read-out: In Vitro MIC.
Where [28] appears, read: ATCC29212, read-out: In Vitro MIC.

≈ marks a conversion by molar mass, not a printed value. Like-named read-outs stand apart in the source and are kept apart here.

For the compound `Nc1nc2c(ncn2COCCO)c(=O)[nH]1` [Aciclovir], the EC50 was 2400 nM in [1], 50 nM in [2], 146 µM in data set [3] and greater than 250 µM in data set [4]. Moreover, the CC50 in [5], in data set [6] and in data set [7] was greater than 250 µM in each case.
In the case of `Nc1ccn(C[C@@H](CO)OCP(=O)(O)O)c(=O)n1` [Cidofovir], the EC50 in data set [1] is 2400 nM; in data set [2], 1000 nM; in data set [3], 5.8 µM; in [4], 37 µM. The CC50 in data set [5], in data set [6] and in data set [7] was greater than 250 µM in each case.
In general, MIC refers to the smallest concentration in the dilution series that meets the test's criterion for growth inhibition. In the case of `CCCCSC1=C(SCCCC)C(=O)N(CCOCCOCCOCCOCc2cn(C3C(=O)NC(CC(N)=O)C(=O)NC4C(=O)NC5C(=O)NC(C(=O)NC(C(=O)O)c6cc(O)cc(O)c6-c6cc5ccc6O)C(O)c5ccc(c(Cl)c5)Oc5cc4cc(c5O)Oc4ccc(cc4Cl)C3O)nn2)C1=O` (centres unmarked) [Compound 7], the MIC was 32 µg/mL (≈ 20.9 µM) in [8] (ATCC6633, B. subtilis ATCC 6633, broth microdilution, read-out: In Vitro MIC); 256 µg/mL (≈ 167 µM) in [9] (S. aureus MSSA ATCC 29213, broth microdilution); 256 µg/mL (≈ 167 µM) in [10]; 32 µg/mL (≈ 20.9 µM) in data set [11] (ATCC35984, S. epidermidis ATCC 35984, broth microdilution, read-out: In Vitro MIC); 32 µg/mL (≈ 20.9 µM) in [12]; 32 µg/mL (≈ 20.9 µM) in data set [13] (ATCC29212, E. faecalis ATCC 29212, broth microdilution, read-out: In Vitro MIC). For the same compound, the MIC in data set [14] and in data set [15] was 256 µg/mL (≈ 167 µM) each time. Further, the “virus-induced cytopathic effect (CPE) upon microscopic inspection” value in data set [16] is “no virus-induced cytopathic effect (CPE) was observed”. Also, the “anti-influenza virus activity (in words)” value in [17] is reported as “robust activity”. Also, the CC50 in data set [18] was 18 µM; in data set [19], greater than 100 µM; in data set [20], greater than 100 µM; in data set [21], greater than 100 µM.
Consider `CCCCCCS(=O)(=O)NC1C(=O)NC(CC(N)=O)C(=O)NC2C(=O)NC3C(=O)NC(C(=O)NC(C(=O)O)c4cc(O)cc(O)c4-c4cc3ccc4O)C(O)c3ccc(c(Cl)c3)Oc3cc2cc(c3O)Oc2ccc(cc2Cl)C1O` (centres unmarked) [Compound 8], for which the minimum inhibitory concentration (MIC) in [8] (setting [26]) came out at 32 µg/mL (≈ 27.5 µM); in data set [9] it was 256 µg/mL (≈ 220 µM); in [10], 256 µg/mL (≈ 220 µM); in data set [11] (setting [27]), 32 µg/mL (≈ 27.5 µM); in data set [12], 64 µg/mL (≈ 54.9 µM); in data set [13] (setting [28]), 32 µg/mL (≈ 27.5 µM). In addition, the MIC in [14] was 256 µg/mL (≈ 220 µM); in [15], 128 µg/mL (≈ 110 µM). Moreover, the EC50 in [22], in [23] and in data set [24] was greater than 100 µM in each case. The “anti-influenza virus activity (in words)” value in data set [17] is “inactive”. The compound further came in with a CC50 in [25] of 100 µM.
Regarding `CCCCCCCCCCOCc1cn(CCOCCOCCOCCOCc2cn(CCNC(=O)[C@H]3NC(=O)[C@H]4NC(=O)[C@H](NC(=O)[C@@H]5NC(=O)[C@H](CC(N)=O)NC(=O)[C@H](N)[C@H](O)c6ccc(c(Cl)c6)Oc6cc5cc(c6O)Oc5ccc(cc5Cl)[C@H]4O)c4ccc(O)c(c4)-c4c(O)cc(O)cc43)nn2)nn1` [Compound 11], the MIC in data set [8] (setting [26]) is 32 µg/mL (≈ 20.8 µM); in [9], 256 µg/mL (≈ 166 µM); in [10] it was 256 µg/mL (≈ 166 µM); in [11] (setting [27]), 256 µg/mL (≈ 166 µM); in [12], 256 µg/mL (≈ 166 µM); in [13] (setting [28]), 128 µg/mL (≈ 83.2 µM). In addition, the minimal inhibitory concentration (MIC) in data set [14] and in data set [15] was 256 µg/mL (≈ 166 µM) in each case. Also, the CC50 in data set [18] was no less than 20 µM.
